Patent publication US20080103191A1, “ENTACAPONE-DERIVATIVES” (priority 2006, published 2008)
Values after ≈ are worked out from the molar mass of the structure shown. Where two headings read alike, the source gives them in different places.

How the values were obtained:
Plasma stability ex vivo = format: in vitro ADME; conditions: human plasma, 37° C., read-out: t1/2 plasma
Experimental: Plasma stability is determined in human and rat plasma ex vivo. For the determination of the plasma stability of the compounds of formula I, the test compounds were incubated with human plasma (c=5 μg/mL) at 37° C. for certain time intervals up to 60, resp. 120 min (depending on the compound). Afterwards the incubations were stopped by equivalent addition of acetonitrile for protein precipitation, and the samples were mixed and centrifuged. The supernatants were adequately diluted and analyzed by HPLC with UV detection at 305 nm.
The degradation of the compounds of formula I as well as the formation of the active drug entacapone were monitored, and the half-life times of the compounds of formula I were calculated from the obtained peak areas.

[1] = Log D (pH 7.4) by isocratic HPLC; format: physicochemical; conditions: YMC Pro C18 column, phosphate buffer pH 7.4/acetonitrile 45/55
Experimental: LogD is an indicator for absorption and lipophilicity for ionized compounds under defined pH conditions and is measured by applying an isocratic HPLC Method at pH 7.4.
The log D has been tested at pH 7.4. The testing has been carried out by the following method: Isocratic HPLC method: Column YMC Pro C18, 150 mm×4.0 mm, 3 μm, Eluent Phosphate buffer pH 7.4/acetonitrile (45/55, (v/v)), Runtime 15-60 min, Flow rate 1.2 ml/min, Detection wavelength: 220 nm

[2] = Chemical hydrolysis stability at pH 1 and pH 7.4 (HPLC); format: physicochemical; conditions: 37° C., over 12 h
Experimental: The stability of compounds of the present invention is tested at pH 1 and at pH 7.4. The testing is carried out by the following HPLC method:
Chemical hydrolysis rates t1/2 [h] of selected compounds of formula I are determined in 0.1 N HCl (pH 1) and PBS buffer (pH 7.4) solution. Solutions are prepared by dissolving an appropriate amount of compound in 0.1 N HCl and PBS buffer solution. Samples were withdrawn at designated time intervals and analysed for remaining prodrug by HPLC at 37° C. over 12 h.
Reversed phase gradient HPLC method, column YMC Pro C8, 50 mm×4.0 mm, 3 μm, Eluent A: Water:trifluoroacetic acid (100:0.5 (v/v)), Eluent B: Acetonitrile:trifluoroacetic:acid (100:0.5 (v/v)). Column temperature 30° C., Flow rate 3.0 mL/min, Detection wavelength: 220 nm
For evaluation, the peak area of the respective compound from the first injection is defined as 100% relative concentration. The peak areas of all other subsequent injections are calculated in percentage relating to this standard. (relative concentration in %). The relative concentrations are plotted in a logarithmic scale (ln) against the injection times. Based on the assumption of a first order kinetic, the rate constant and half life times (t1/2 [h]) can be calculated.

[3] = Permeability in Caco-2 cells, apical to basolateral; format: in vitro ADME; design: dose or concentration left out as unconfirmed; conditions: human; 21d Caco-2 monolayer, apical pH 6.5 to basolateral pH 7.4, 60 minutes
Excerpt: The human adenocarcinoma cell line Caco-2 is used as an in vitro system to predict oral absorption. These cells serve as a model of small bowel tissue and permeation through these cells is a predictor for gastro-intestinal absorption. Further to being a model for oral absorption, permeability in Caco-2 cells may be predictive for the blood brain barrier permeability (P. Garberg et al.; Toxicology in vitro 19 (2005); 299-334). […] The permeability in Caco-2 cells has been tested by the following method:
The permeability of selected compounds of formula I across Caco-2 (21d Caco-2-culture) monolayer in the apical to basolateral direction is investigated. Control substances were ^3H-propranolol and ^3H-mannitol.
The nominal concentration of the test items is […]. The pH value is set to 6.5 for the apical transport medium and to 7.4 for the basolateral medium. Samples are obtained following 60 minutes (120 minutes for control samples) incubation from the basolateral receiver chamber. At sampling time approximately 600 μL of each well are transferred into an eppendorf vial and stored between −12° and −30° C. until HPLC or LC-MS/MS analysis. The control substances are quantified by liquid scintillation.

[4] = Solubility in 0.1 N HCl, PBS buffer, FaSSIF and FeSSIF; format: physicochemical; conditions: thermodynamic from solid, ambient temperature
Experimental: For testing solubility, saturated solutions of selected compounds of formula I are prepared in four different systems and compared to the solubility of entacapone. The solubility is tested in 0.1 N HCl (pH 1), PBS buffer (pH 7.4) and in two simulated gastric fluids, FaSSIF at pH 6.5 (for fasting state) and FeSSIF at pH 5.0 (for fed state) at ambient temperature. The content of the FaSSIF simulated gastric fluid is as follows:
The solubility testing is carried out by the following method: An excess amount of each compound is added to a 0.1 N HCl, PBS buffer, FeSSIF and FaSSIF. The suspensions are shaken for 10 min. After centrifugation the concentration is determined by HPLC. Reversed phase gradient HPLC method, column YMC Pro C8, 50 mm×4.0 mm, 3 μm, Eluent A: Water:trifluoroacetic acid (100:0.5 (v/v)), Eluent B: Acetonitrile:trifluoroacetic:acid (100:0.5 (v/v)). Column temperature 30° C., Flow rate 3.0 mL/min, Detection wavelength: 220 nm

[5] = pH 1, 0.1 N HCl, read-out: t1/2 at pH 1 (converted)
[6] = pH 7.4, PBS buffer, read-out: t1/2 at pH 7.4 (converted)
[7] = 0.1 N HCl, pH 1, simulated gastric fluid, shaken 10 min, read-out: Solubility 0.1N HCl Ph 1.0
[8] = FaSSIF, pH 6.5, fassif, fasting state fluid, read-out: Solubility FaSSIF Ph 6.5
[9] = FeSSIF, pH 5, fessif, fed state fluid, read-out: Solubility FeSSIF Ph 5.0
[10] = PBS buffer, pH 7.4, aqueous buffer, read-out: Solubility PBS Ph 7.4

Row | Compound | half-life at 5 μg/mL (Plasma stability ex vivo) [h] | chromatographic logD [1] | half-life [2, 5] [h] | half-life [2, 6] [h] | Papp A→B at 60 min [3] [×10⁻⁶ cm/s] | solubility at 10 min [4, 7] [µg/mL] | solubility at 10 min [4, 8] [µg/mL] | solubility at 10 min [4, 9] [µg/mL] | solubility at 10 min [4, 10] [µg/mL]
1 | CCN(CC)C(=O)/C(C#N)=C/c1cc(OC(=O)OC2CC3CCC2(C)C3(C)C)c(O)c([N+](=O)[O-])c1 (stereo not shown) [Compound 67, Carbonic acid 5-((E)-2-cyano-2-diethylcarbamoyl-vinyl)-2-hydroxy-3-nitro-phenyl ester 1,7,7-trimethyl-bicyclo[2.2.1]hept-2-yl ester] | 0.0467 | 2.8 | 12.8 | 14.4 | 14.8 |  |  |  | 
2 | CCN(CC)C(=O)/C(C#N)=C/c1cc(OC(=O)OC(C)C)c(O)c([N+](=O)[O-])c1 [Compound 7, Carbonic acid 5-((E)-2-cyano-2-diethylcarbamoyl-vinyl)-2-hydroxy-3-nitro-phenyl ester isopropyl ester] | 0.223 | 1 | 2.7 | 23.1 | 31 | 3 (≈ 7.67 µM) | 750 (≈ 1920 µM) | 90 (≈ 230 µM) | 950 (≈ 2430 µM)
3 | C=CCOC(=O)Oc1cc(/C=C(\C#N)C(=O)N(CC)CC)cc([N+](=O)[O-])c1O [Compound 65, Carbonic acid allyl ester 5-((E)-2-cyano-2-diethylcarbamoyl-vinyl)-2-hydroxy-3-nitro-phenyl ester] | 0.0167 | 1 | 16.5 | 4.1 | 8.5 |  |  |  | 
4 | CCN(CC)C(=O)/C(C#N)=C/c1cc(OC(=O)OCC(C)C)c(O)c([N+](=O)[O-])c1 [Compound 1, Carbonic acid 5-((E)-2-cyano-2-diethylcarbamoyl-vinyl)-2-hydroxy-3-nitro-phenyl ester isobutyl ester] | 0.128 | 1.4 | 6.8 | 11.6 | 24 | 20 (≈ 49.3 µM) | 530 (≈ 1310 µM) | 200 (≈ 493 µM) | 530 (≈ 1310 µM)
5 | CCN(CC)C(=O)/C(C#N)=C/c1cc(OC(=O)OC2CCCCC2)c(O)c([N+](=O)[O-])c1 [Compound 51, Carbonic acid 5-((E)-2-cyano-2-diethylcarbamoyl-vinyl)-2-hydroxy-3-nitro-phenyl ester cyclohexyl ester] | 0.64 | 1.8 | < 1 | 19.3 | 45 | < 10 | 1200 (≈ 2780 µM) | 140 (≈ 324 µM) | 810 (≈ 1880 µM)
6 | CCN(CC)C(=O)/C(C#N)=C/c1cc(OC(=O)OCC2COC(C)(C)O2)c(O)c([N+](=O)[O-])c1 (stereo not shown) [Compound 12, Carbonic acid 5-((E)-2-cyano-2-diethylcarbamoyl-vinyl)-2-hydroxy-3-nitro-phenyl ester 2,2-dimethyl-[1,3]dioxolan-4-ylmethyl ester] |  |  | < 1 | 2.8 | 2.3 |  |  |  | 
7 | C#CCCOC(=O)Oc1cc(/C=C(\C#N)C(=O)N(CC)CC)cc([N+](=O)[O-])c1O [Compound 83, Carbonic acid but-3-ynyl ester 5-((E)-2-cyano-2-diethylcarbamoyl-vinyl)-2-hydroxy-3-nitro-phenyl ester] |  | 1.1 | 12.8 | 3 | 4.9 | 10 (≈ 24.9 µM) | 910 (≈ 2270 µM) | 430 (≈ 1070 µM) | 850 (≈ 2120 µM)
8 | CCN(CC)C(=O)/C(C#N)=C/c1cc(OC(=O)OCc2ccc([N+](=O)[O-])cc2)c(O)c([N+](=O)[O-])c1 [Compound 27, Carbonic acid 5-((E)-2-cyano-2-diethylcarbamoyl-vinyl)-2-hydroxy-3-nitro-phenyl ester 4-nitro-benzyl ester] | > 0.133 | > 8 | 3.4 | 1.6 | 18.1 |  |  |  | 
9 | CCOC(=O)Oc1cc(/C=C(\C#N)C(=O)N(CC)CC)cc([N+](=O)[O-])c1O [Compound 71, Carbonic acid 5-((E)-2-cyano-2-diethylcarbamoyl-vinyl)-2-hydroxy-3-nitro-phenyl ester ethyl ester] | 0.0133 | 0.8 | 28.9 | 8.3 | 7.7 | 70 (≈ 186 µM) | 570 (≈ 1510 µM) | 1100 (≈ 2920 µM) | 800 (≈ 2120 µM)
10 | CCCOC(=O)Oc1cc(/C=C(\C#N)C(=O)N(CC)CC)cc([N+](=O)[O-])c1O [Compound 41, Carbonic acid 5-((E)-2-cyano-2-diethylcarbamoyl-vinyl)-2-hydroxy-3-nitro-phenyl ester propyl ester] | 0.112 | 1.2 | 23.1 | 7.2 | 18 | 10 (≈ 25.6 µM) | 290 (≈ 741 µM) | 200 (≈ 511 µM) | 470 (≈ 1200 µM)
11 | CCN(CC)C(=O)/C(C#N)=C/c1cc(OC(=O)OCCc2cccs2)c(O)c([N+](=O)[O-])c1 [Compound 61, Carbonic acid 5-((E)-2-cyano-2-diethylcarbamoyl-vinyl)-2-hydroxy-3-nitro-phenyl ester 2-thiophen-2-yl-ethyl ester] | 0.47 | 1.7 | 12.8 | 4 | 36 |  | 240 (≈ 522 µM) | 40 (≈ 87.1 µM) | 490 (≈ 1070 µM)
